In ChEMBL document CHEMBL1909046, “DrugMatrix in vitro pharmacology data”:

Columns and labels:
[1] = molecular target: Cannabinoid receptor 1 (Homo sapiens, UniProt P21554); format: cell membranes, Chem-1, Membrane; conditions: chem-1; note: in other assays of this panel Not Active means under 50% inhibition at 10 µM
[2] = DRUGMATRIX: Glutamate, Kainate radioligand binding (ligand: [3H] Kainic acid); format: cell membranes, Rattus norvegicus, Wistar, Brain, Membrane; conditions: Not Active = under 50% inhibition at 10 µM
[3] = DRUGMATRIX: Atrial Natriuretic Factor (ANF) radioligand binding (ligand: [125I] ANF (rat)); format: cell membranes, Cavia porcellus, Dunkin-Hartley, Adrenal gland, Membrane; conditions: Not Active = under 50% inhibition at 10 µM
[4] = DRUGMATRIX: Nicotinic Acetylcholine radioligand binding (ligand: [125I] Epibatidine); format: cell membranes, Membrane; conditions: imr-32; Not Active = under 50% inhibition at 10 µM
[5] = molecular target: T1, B2 bradykinin receptor (Homo sapiens, UniProt P30411); format: cell membranes, Membrane; conditions: chem-1; note: in other assays of this panel Not Active means under 50% inhibition at 10 µM
T1 sequence (P30411 whole entry): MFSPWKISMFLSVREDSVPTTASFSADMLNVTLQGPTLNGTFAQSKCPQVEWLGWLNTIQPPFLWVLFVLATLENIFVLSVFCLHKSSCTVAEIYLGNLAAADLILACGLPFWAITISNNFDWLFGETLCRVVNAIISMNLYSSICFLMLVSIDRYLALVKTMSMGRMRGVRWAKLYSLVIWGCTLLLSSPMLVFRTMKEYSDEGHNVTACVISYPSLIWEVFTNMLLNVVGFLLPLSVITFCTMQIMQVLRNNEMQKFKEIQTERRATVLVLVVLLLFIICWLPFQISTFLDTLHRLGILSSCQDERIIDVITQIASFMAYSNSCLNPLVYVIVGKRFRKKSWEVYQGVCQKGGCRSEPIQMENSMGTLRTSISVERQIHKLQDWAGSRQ

[6] = molecular target: T2, Muscarinic acetylcholine receptor M2 (Homo sapiens, UniProt P08172); format: cell membranes, CHO-K1, Membrane; note: in other assays of this panel Not Active means under 50% inhibition at 10 µM
T2 sequence (P08172 whole entry): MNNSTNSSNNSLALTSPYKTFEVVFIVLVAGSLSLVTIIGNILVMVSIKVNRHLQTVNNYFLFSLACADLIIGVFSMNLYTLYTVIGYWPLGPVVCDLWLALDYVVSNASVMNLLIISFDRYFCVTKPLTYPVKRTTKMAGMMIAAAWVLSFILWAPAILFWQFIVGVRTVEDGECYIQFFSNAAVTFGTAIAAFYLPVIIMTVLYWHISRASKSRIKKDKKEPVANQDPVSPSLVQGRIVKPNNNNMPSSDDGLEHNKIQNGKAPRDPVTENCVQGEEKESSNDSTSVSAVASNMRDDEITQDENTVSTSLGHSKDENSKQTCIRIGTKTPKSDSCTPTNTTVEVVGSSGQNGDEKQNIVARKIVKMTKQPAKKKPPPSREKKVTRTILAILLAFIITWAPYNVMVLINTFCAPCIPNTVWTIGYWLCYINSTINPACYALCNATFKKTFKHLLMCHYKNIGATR

[7] = molecular target: T3, Cytochrome P450 1A2 (Homo sapiens, UniProt P05177); conditions: bti-tn-5b1-4; note: in other assays of this panel Not Active means under 50% inhibition at 10 µM
T3 sequence (P05177 whole entry): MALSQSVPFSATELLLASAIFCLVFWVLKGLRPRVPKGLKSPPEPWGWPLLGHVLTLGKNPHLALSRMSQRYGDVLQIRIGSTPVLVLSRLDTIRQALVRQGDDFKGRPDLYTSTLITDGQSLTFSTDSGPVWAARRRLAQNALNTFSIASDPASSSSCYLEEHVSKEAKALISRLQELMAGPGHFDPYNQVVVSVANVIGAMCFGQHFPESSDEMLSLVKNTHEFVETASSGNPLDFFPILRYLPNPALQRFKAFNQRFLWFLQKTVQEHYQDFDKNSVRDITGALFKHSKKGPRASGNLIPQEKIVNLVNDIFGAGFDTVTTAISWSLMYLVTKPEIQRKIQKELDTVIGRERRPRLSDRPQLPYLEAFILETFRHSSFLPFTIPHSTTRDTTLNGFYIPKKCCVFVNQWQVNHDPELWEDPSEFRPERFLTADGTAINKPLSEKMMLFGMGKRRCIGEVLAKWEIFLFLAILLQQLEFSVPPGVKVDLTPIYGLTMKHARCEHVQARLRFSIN

[8] = molecular target: T4, Glucocorticoid receptor (Homo sapiens, UniProt P04150); conditions: hela s3; note: in other assays of this panel Not Active means under 50% inhibition at 10 µM
T4 sequence (P04150 whole entry): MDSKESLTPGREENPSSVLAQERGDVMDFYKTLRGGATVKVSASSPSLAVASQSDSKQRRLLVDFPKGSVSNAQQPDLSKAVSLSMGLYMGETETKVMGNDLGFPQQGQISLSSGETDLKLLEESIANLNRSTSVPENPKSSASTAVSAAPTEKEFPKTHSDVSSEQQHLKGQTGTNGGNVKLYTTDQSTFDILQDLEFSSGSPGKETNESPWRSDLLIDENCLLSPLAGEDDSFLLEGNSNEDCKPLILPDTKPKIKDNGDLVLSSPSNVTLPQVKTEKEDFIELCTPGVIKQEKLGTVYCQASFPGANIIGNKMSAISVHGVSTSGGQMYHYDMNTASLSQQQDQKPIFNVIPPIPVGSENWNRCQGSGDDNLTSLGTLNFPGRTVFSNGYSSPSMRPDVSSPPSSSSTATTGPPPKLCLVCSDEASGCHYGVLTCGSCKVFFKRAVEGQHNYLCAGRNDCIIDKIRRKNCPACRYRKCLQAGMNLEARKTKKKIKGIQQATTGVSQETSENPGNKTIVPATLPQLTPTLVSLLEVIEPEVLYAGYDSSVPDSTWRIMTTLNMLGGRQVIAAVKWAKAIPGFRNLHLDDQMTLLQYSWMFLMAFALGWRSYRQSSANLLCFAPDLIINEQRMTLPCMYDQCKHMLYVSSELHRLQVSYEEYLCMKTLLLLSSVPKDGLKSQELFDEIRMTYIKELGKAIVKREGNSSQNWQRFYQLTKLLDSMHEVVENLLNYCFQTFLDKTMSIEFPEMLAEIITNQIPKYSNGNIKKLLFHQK

Chain of Cannabinoid receptor 1 (P21554 whole entry): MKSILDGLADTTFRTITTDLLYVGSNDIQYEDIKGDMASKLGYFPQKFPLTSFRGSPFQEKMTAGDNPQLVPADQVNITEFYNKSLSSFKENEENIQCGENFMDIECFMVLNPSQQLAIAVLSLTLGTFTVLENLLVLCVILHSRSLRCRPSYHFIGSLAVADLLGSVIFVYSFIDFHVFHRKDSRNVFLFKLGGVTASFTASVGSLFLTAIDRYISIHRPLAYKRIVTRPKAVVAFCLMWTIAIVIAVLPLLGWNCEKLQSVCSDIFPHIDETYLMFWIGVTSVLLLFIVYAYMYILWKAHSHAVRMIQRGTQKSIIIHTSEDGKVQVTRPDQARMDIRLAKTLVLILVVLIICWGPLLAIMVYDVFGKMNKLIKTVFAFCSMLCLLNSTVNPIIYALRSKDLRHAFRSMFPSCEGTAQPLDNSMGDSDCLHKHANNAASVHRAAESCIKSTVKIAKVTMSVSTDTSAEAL

Compound	IC50 [1]	IC50 [2]	Ki [2]	IC50 [3]	Ki [3]	IC50 [4]	Ki [4]	IC50 [5]	IC50 ([6]; cho-k1)	IC50 [7]	Ki [7]	IC50 [8]	IC50 ([6]; read-out: IC50) [µM]	Ki ([6]; read-out: Ki) [µM]
CC(C)Cc1ccc([C@@H](C)C(=O)O)cc1 [(R)-IBUPROPHEN]	Not Active	Not Active	Not Active	Not Active	Not Active	Not Active	Not Active	Not Active	Not Active	Not Active	Not Active	Not Active		
Cc1ccc(NC(=O)c2ccc(CN3CCN(C)CC3)cc2)cc1Nc1nccc(-c2cccnc2)n1 [IMATINIB]	Not Active							Not Active	Not Active	Not Active	Not Active	Not Active		
CC(C)Oc1ccc2c(=O)c(-c3ccccc3)coc2c1 [IPRIFLAVONE]	Not Active	Not Active	Not Active	Not Active	Not Active	Not Active	Not Active	Not Active	Not Active	Not Active	Not Active	Not Active		
CC(C)NCC(O)c1ccc(O)c(O)c1 (stereo unspecified) [ISOPROTERENOL]	Not Active	Not Active	Not Active	Not Active	Not Active	Not Active	Not Active	Not Active	Not Active	Not Active	Not Active	Not Active		
CNC1(c2ccccc2Cl)CCCCC1=O (stereo unspecified) [KETAMINE]	Not Active	Not Active	Not Active	Not Active	Not Active	Not Active	Not Active	Not Active	Not Active	Not Active	Not Active	Not Active		
CCN1CCC[C@H]1CNC(=O)c1cc(S(N)(=O)=O)ccc1OC [LEVOSULPIRIDE]	Not Active	Not Active	Not Active	Not Active	Not Active	Not Active	Not Active	Not Active	Not Active	Not Active	Not Active	Not Active		
O=C1Nc2ccc(Cl)cc2C(c2ccccc2Cl)=NC1O (stereo unspecified) [LORAZEPAM]	Not Active	Not Active	Not Active	Not Active	Not Active	Not Active	Not Active	Not Active	Not Active	Not Active	Not Active	Not Active		
CO[C@@H]1[C@@H](OC)[C@H](C)[C@@](O)(CC(=O)O)O[C@H]1[C@H](C)[C@H]1O[C@@]2(CC[C@@](C)([C@H]3CC[C@@](C)([C@@H]4O[C@@H]([C@H]5O[C@](C)(O)[C@H](C)C[C@@H]5C)C[C@@H]4O[C@@H]4C[C@H](OC)[C@@H](OC)[C@H](C)O4)O3)O2)C[C@H](O)[C@H]1C [MADURAMICIN ACID]	Not Active	Not Active	Not Active	Not Active	Not Active	Not Active	Not Active	Not Active	Not Active	Not Active	Not Active	Not Active		
Nc1cc(N2CCCCC2)nc(N)[n+]1[O-] [MINOXIDIL]	Not Active	Not Active	Not Active	Not Active	Not Active	Not Active	Not Active	Not Active	Not Active	Not Active	Not Active	Not Active		
CO[C@H]1/C=C/O[C@@]2(C)Oc3c(C)c(O)c4c(O)c(c(/C=N/N5CCN(C6CCCC6)CC5)c(O)c4c3C2=O)NC(=O)/C(C)=C\C=C\[C@H](C)[C@H](O)[C@@H](C)[C@@H](O)[C@@H](C)[C@H](OC(C)=O)[C@@H]1C [RIFAPENTINE]	Not Active	Not Active	Not Active	Not Active	Not Active	Not Active	Not Active	Not Active	Not Active	Not Active	Not Active	Not Active		
CCCCOc1cc(CC2CNC(=O)N2)ccc1OC (stereo unspecified) [RO-201724]	Not Active	Not Active	Not Active	Not Active	Not Active	Not Active	Not Active	Not Active	Not Active	Not Active	Not Active	Not Active		
O=C(O)c1cn(-c2ccc(F)cc2)c2cc(N3CCNCC3)c(F)cc2c1=O [SARAFLOXACIN]	Not Active	Not Active	Not Active	Not Active	Not Active	Not Active	Not Active	Not Active	Not Active	Not Active	Not Active	Not Active		
CN[C@H]1CC[C@@H](c2ccc(Cl)c(Cl)c2)c2ccccc21 [SERTRALINE]	Not Active							Not Active		Not Active	Not Active	Not Active	2.77	0.984
CC(C)NCC(O)c1ccc(NS(C)(=O)=O)cc1 (stereo unspecified) [SOTALOL]	Not Active	Not Active	Not Active	Not Active	Not Active	Not Active	Not Active	Not Active	Not Active	Not Active	Not Active	Not Active		
O=C1C(CC[S+]([O-])c2ccccc2)C(=O)N(c2ccccc2)N1c1ccccc1 (stereo unspecified) [SULFINPYRAZONE]	Not Active	Not Active	Not Active	Not Active	Not Active	Not Active	Not Active	Not Active	Not Active	Not Active	Not Active	Not Active		
COc1cc2nc(N3CCN(C(=O)C4CCCO4)CC3)nc(N)c2cc1OC (stereo unspecified) [TERAZOSIN]	Not Active	Not Active	Not Active	Not Active	Not Active	Not Active	Not Active	Not Active	Not Active	Not Active	Not Active	Not Active		
